Assay results taken from US20030199584A1, “Reduction of hair growth” (priority 2002, published 2003).
Read-outs that look alike come from different tables or passages of the source.

Tests used:
[1] = assay type: in vitro ADME; conditions: 1 %
Protocol: DFMO skin penetration was assessed using a modified protocol of the Franz diffusion assay. In this experiment either the SP33 formulation (without DFMO) or the SP33 formulation prepared with dipropylene glycol dimethylether (DPGDME) again with out DFMO was applied to the skin for […]. The formulations were then removed from the skins' surfaces, which were dried with a cotton swab. The hydroalcoholic formulation 1—containing 1% DFMO with radiotracer ^14C-DFMO—was applied to the skin and gently spread over the surface with a glass, stirring rod. Aliquots of the receptor fluid were removed at 3, 6 and 24 hours after DFMO application and penetration was determined using liquid scintillation. As shown in Table 6 enhancement of DFMO penetration through the skin occurred when dipropylene glycol […] was substituted for dipropylene glycol.

[2] = In vitro diffusion (Franz) skin penetration assay, Protocol 1, 14C-DFMO through hamster skin; assay type: in vitro ADME, Golden, Syrian hamsters
Source text: (§1) An in vitro diffusion assay was established based on that reported by Franz. Dorsal skin from Golden, Syrian hamsters or Hartley guinea pigs is clipped with electric clippers, trimmed to the appropriate size and placed in a glass diffusion chamber. The receptor fluid consisted of phosphate buffered saline, an isotonic solution for maintaining cell viability and 0.1% sodium azide, a preservative and was placed in the lower chamber of the diffusion apparatus such that the level of the receptor fluid was in parallel with the mounted skin. After equilibration at 37° C. for at least 30 minutes, 10 μl or 20 μl of the test or control formulation containing equal amounts of DFMO were added to the surface of the skin and gently spread over the entire surface with a glass stirring rod. A radiotracer amount of 14C-DFMO (0.5-1 microCurie per diffusion chamber) was used in the formulations to assess DFMO penetration. Penetration of DFMO was determined by removing an aliquot (400 μL) periodically throughout the course of the experiment, and quantitating radioactivity using liquid scintillation.

[3] = In vitro skin penetration assay, Protocol 2 (skin pretreated 15 minutes with formulation without DFMO); assay type: in vitro ADME, Golden, Syrian hamsters or Hartley guinea pigs; conditions: Tables 9 and 10
Source text: as §1
This procedure is similar to that described in Protocol 1 with the exception that prior to the application of radiolabeled DFMO, the skin surfaces received 1 ml of the formulation without DFMO. After 15 minutes the formulation was removed and the surface of the skin was gently dried with a cotton swab. […]

[4] = DFMO skin penetration after overnight pretreatment of the skin with fatty acid; assay type: in vitro ADME; conditions: skin pretreated overnight; DFMO in hydroalcoholic formulation; receptor fluid measured hourly over eight hours (FIG. 1, FIG. 2)
Source text: as §1
Further confirmation of the cis fatty acid action on skin penetration was obtained by pretreating the skin overnight with oleic acid or elaidic acid. The following day DFMO was applied to the surface of the skin in the hydroalcoholic formulation.

[5] = In vitro diffusion skin penetration assay of DFMO, skin species not named; assay type: in vitro ADME, Golden, Syrian hamsters or Hartley guinea pigs; conditions: for Fold-Enhancement DDP/Control: DDP 10%; for % Applied Dose of DFMO penetrated: cream formulation 1 with or without DDP 10%
Source text: as §1

With `COCC(C)OCC(C)OC` (centres unmarked) [DPGDME, dipropylene glycol dimethylether] the “% Applied Dose of DFMO penetrated” value ([1]; 3 h) was 7.71 ± 3.1 % Applied Dose, the Fold-Enhancement ([1]; 3 h) was 4.64 fold and the “% Applied Dose of DFMO penetrated” value ([1]; 6 h) was 9.55 ± 3.68 % Applied Dose. The Fold-Enhancement ([1]; 6 h) was 3.93 fold, the “% Applied Dose of DFMO penetrated” value ([1]; 24 h) was 10.85 ± 3.8 % Applied Dose and the Fold-Enhancement ([1]; 24 h) was 3.02 fold.
With Tween-80 the “Fold Enhancement of DFMO penetration” value [2] was 0.502 ± .14 fold and the “Reduction in DFMO penetration” value [2] was about 50%.
For `CC(C)[C@@H]1CC[C@@H](C)CC1=O` [Menthone], the “Fold Enhancement of DFMO penetration” value ([2]; Golden Syrian, hamster, 10 %) was 1.99 ± .40 fold.
For `CCCCCCCCCCCCCC(=O)OC(C)C` [IPM, isopropyl myristate], the “Effect on penetration of DFMO through the skin (in words)” value [3] was “significantly increased the penetration of DFMO through the skin”.
In the case of `CC12CCC(CC1)C(C)(C)O2` [Cineole, 1,8-cineole], the “Fold Enhancement of DFMO penetration” value ([2]; Golden Syrian, hamster, 10 %) is reported as 1.91 ± .51 fold.
In the case of `CCCCCCCC/C=C/CCCCCCCC(=O)O` [elaidic acid], the “Enhancement of DFMO skin penetration after pretreatment” value [4] is reported as “no increase in skin penetration of DFMO” and the “Effect on DFMO skin penetration (in words)” value [2] is reported as “devoid of DFMO penetration enhancing properties”.
With `CCCCCCCC/C=C\CCCCCCCC(=O)O` [Oleic Acid] the “Effect on DFMO skin penetration (in words)” value [2] was “increase in skin penetration” and the “Fold Enhancement of DFMO penetration” value ([2]; Golden Syrian, hamster, 10 %) was 2.85 ± .76 fold.
In the case of Tween-40, the “Fold Enhancement of DFMO penetration” value [2] is reported as 3.07 ± 1.65 fold.
With `CCCCCCCCCCCCN1CCCC1=O` [DDP, 1-dodecyl-2-pyrrolidanone] the “Fold-Enhancement DDP/Control” value ([5]; 2 hrs) was 0.41 fold, the “% Applied Dose of DFMO penetrated” value ([5]; 2 hrs) was 0.15 ± .01 % Applied Dose and the “Fold-Enhancement DDP/Control” value ([5]; 4 hrs) was 0.91 fold. The “% Applied Dose of DFMO penetrated” value ([5]; 4 hrs) was 0.52 ± .08 % Applied Dose, the “Fold-Enhancement DDP/Control” value ([5]; 6 hrs) was 2.00 fold and the “% Applied Dose of DFMO penetrated” value ([5]; 6 hrs) was 1.26 ± .24 % Applied Dose. For the same compound, the “Fold-Enhancement DDP/Control” value ([5]; 24 hrs) was 5.11 fold, the “% Applied Dose of DFMO penetrated” value ([5]; 24 hrs) was 9.31 ± 1.38 % Applied Dose and the “Increase in skin penetration by DFMO” value ([5]; DDP 10% in cream base Formulation-1) was at most 5 fold.
In the case of `CC(C)CCCCCCCCCCCCCCCOC(=O)CCCCCCCCCCCCCCC(C)C` [Isostearyl Isosterate, isostearyl isostearate], the “Effect on penetration of DFMO through the skin (in words)” value [3] is reported as “significantly increased the penetration of DFMO through the skin”.
With `CCCCCCCCCCC/C=C\CCCCC(=O)O` [Petroselenic Acid] the “Fold Enhancement of DFMO penetration” value [2] was 1.40 ± 1.5 fold.
With Capric/Caprylic Triglyceride [Captex] the “Effect on DFMO skin penetration (in words)” value [5] was “increase in DFMO skin penetration”.
With Tween-20 the “Fold Enhancement of DFMO penetration” value ([2]; Tween derivative 5% in Hydroalcoholic Formulation 1, hamster skin) was 1.54 ± .47 fold.
